Where a SMILES comes first, the peptide text is derived from it. Bridges are numbered along the chain shown (N, C = ends). Roman numbers before positions name the chains, in order. [ ]: non-standard residue; d: D form. 2Nal = N[C@@H](Cc1ccc2ccccc2c1)C(=O)O; Dap = NC[C@H](N)C(=O)O; AEEA = NCCOCCOCC(=O)O
What was measured:
[1] = cited from earlier work
HeLa cells = assay: Live-cell confocal microscopy of FAM-labeled peptides; format: cell-based; conditions: 5 μM FAM-labeled peptide, 2 h, 1% FBS
SW480 cells = conditions: up to 50 μM
SJSA-1 cells = assay: MTT viability assay, SJSA-1 cells; format: cell-based, human
[2] = system: MCF7, HCT116 and HeLa cells; conditions: ≥20 μM, apparently off-target (membrane disruption)

## nonaarginine [Peptide R9]
[1]
  fold lower cytosolic delivery efficiency than cyclic CPP9: 15 fold

## Ac-EETFCHYWCQLTS-miniPEG-K(FAM) (bicyclic or more) [Peptide 25]
HeLa cells
  intracellular fluorescence: brightly fluorescent

## CC[C@H](C)[C@@H]1NC(=O)[C@@H](NC(=O)[C@H](CCC(=O)O)NC(=O)[C@@H]2CCCN2C(=O)[C@H](Cc2ccc(O)cc2)NC(=O)CNC(=O)CNC(C)=O)CC(=O)NCCCC[C@@H](C(=O)N[C@@H](Cc2cnc[nH]2)C(=O)N[C@@H](CC(C)C)C(=O)N[C@@H](CCC(N)=O)C(=O)N[C@@H](CCCNC(=N)N)C(=O)N[C@H](C(=O)N[C@H](C(=O)N[C@@H](CC(C)C)C(=O)NCCOCCOCC(=O)NCCOCCOCC(=O)N[C@@H](CNC(=O)CC[C@@H]2NC(=O)[C@@H](CCCNC(=N)N)NC(=O)[C@H](CCCNC(=N)N)NC(=O)[C@@H](CCCNC(=N)N)NC(=O)[C@H](CCCNC(=N)N)NC(=O)[C@H](Cc3ccc4ccccc4c3)NC(=O)[C@@H](Cc3ccccc3)NC2=O)C(N)=O)[C@@H](C)CC)C(C)C)NC(=O)[C@H](CC(=O)O)NC(=O)[C@H](CC(C)C)NC1=O [Peptide 9] (I: Ac-GGYPEDILDKHLQRVIL[AEEA][AEEA][Dap]-NH2 / II: cyclo([2Nal]R[dR]R[dR]E[dF]); lactam I:6-I:10; amide I:20-II:6)
SW480 cells
  LDH release from SW480 cells: did not cause significant LDH release

## Ac-LTFDHYWKQLTS-miniPEG-K(Tat) (sidechain bridge or staple) [Peptide 6]
SJSA-1 cells
  effect on viability of SJSA-1 cells: did not cause significant reduction

## Ac-LTFCHYWCQLTS-miniPEG-K(FAM) (bicyclic or more) [Peptide 21]
HeLa cells
  intracellular fluorescence: brightly fluorescent

## Ac-LTFDHYWKQLTS-miniPEG-K(R9) (sidechain bridge or staple) [Peptide 7]
SJSA-1 cells
  effect on viability of SJSA-1 cells: did not cause significant reduction

## CC(=O)N[C@@H](CC(C)C)C(=O)N[C@H](C(=O)N[C@@H](Cc1ccccc1)C(=O)N[C@H]1CC(=O)NCCCC[C@@H](C(=O)N[C@@H](CCC(N)=O)C(=O)N[C@@H](CC(C)C)C(=O)N[C@H](C(=O)N[C@@H](CO)C(=O)NCCOCCOCC(=O)N[C@@H](CCCCNC(=O)CC[C@@H]2NC(=O)[C@@H](CCCNC(=N)N)NC(=O)[C@H](CCCNC(=N)N)NC(=O)[C@@H](CCCNC(=N)N)NC(=O)[C@H](CCCNC(=N)N)NC(=O)[C@H](Cc3ccc4ccccc4c3)NC(=O)[C@@H](Cc3ccccc3)NC2=O)C(N)=O)[C@@H](C)O)NC(=O)[C@H](Cc2c[nH]c3ccccc23)NC(=O)[C@H](Cc2ccc(O)cc2)NC(=O)[C@H](Cc2cnc[nH]2)NC1=O)[C@@H](C)O [Peptide 4] (I: Ac-LTFDHYWKQLTS[AEEA]K-NH2 / II: cyclo([2Nal]R[dR]R[dR]E[dF]); lactam I:4-I:8; amide I:14-II:6)
[2]
  effect on cell viability at higher concentrations: almost complete loss of cell viability

## Ac-ETFCHYWCQLTS-miniPEG-K(FAM) (bicyclic or more) [Peptide 23]
HeLa cells
  intracellular fluorescence: brightly fluorescent
